Measurements taken from US20260265222A1, “1H-PYRROLE-2-AMIDE DERIVATIVE, PHARMACEUTICAL COMPOSITION AND METHOD FOR TREATING AND/OR PREVENTING YTHDC1-RELATED DISEASES” (priority 2023, published 2026).

System: leukaemia cell MOLM-13
Test: Cell cycle detection by flow cytometry (PI)
Assay type: cell-based
Conditions: MOLM-13, 0.5-2 μM, 48 h (FIG. 1b)
Procedure: To detect the effect of the small molecule YL-5092 on the cell cycle of leukaemia cell MOLM-13, MOLM-13 cells were evenly seeded in 12-well plates and treated with different concentration gradients of YL-5092 (0.5-2 μM) for 48 h. After collection, the cells were washed once with ice-cold PBS and fixed with 70% ice-cold ethanol for 12 h. Before analysis on the flow cytometer, the cells were washed twice with ice-cold PBS and then incubated with PI reagent for 30 min, protected from light.

Row | SMILES | AML cell cycle arrest
1 | O=C(Nc1ccc(-c2cncs2)cc1)c1cc(C(=O)c2ccccc2C(F)(F)F)c[nH]1 [Compound 29] | significantly induce AML cell cycle arrest in the G0/G1 phase

Biological target: T1, GST-YTHDC1 (345-509) protein (Homo sapiens, UniProt Q96MU7)
T1 construct: GST-YTHDC1 (345-509) protein
Test: Fluorescence polarization-based in vitro enzyme-level test against YTHDC1
Assay type: binding
Conditions: 30 nM GST-YTHDC1 (345-509), FAM-labeled m6A-modified single-stranded oligonucleotide, 18° C., 4 hours; read-out: IC50 (Inhibitory Activity against YTHDC1)

Row | SMILES | IC50 [µM]
2 | O=C(Nc1ccc(-c2cncs2)cc1)c1cc2c(-c3ccccc3C(F)(F)F)nccc2[nH]1 [Compound 41] | 0.192
3 | COc1ccc(CNc2ccccc2C(=O)c2c[nH]c(C(=O)Nc3ccc(-c4cnco4)cc3)c2)cc1 [Compound 130] | ≥ 50
4 | O=C(Nc1cccnc1)c1cc(C(=O)c2ccccc2C(F)(F)F)c[nH]1 [Compound 2] | 0.8
5 | CN(C)CCOc1cc(NC(=O)c2cc(C(=O)c3ccccc3C(F)(F)F)c[nH]2)ccc1-c1cnco1 [Compound 101] | 0.043
6 | COc1cc(NC(=O)c2cc(C(=O)c3ccccc3C(F)(F)F)c[nH]2)ccc1C(F)(F)F [Compound 114] | 0.016
7 | CN1CCN(c2ncc(-c3ccc(NC(=O)c4cc(C(=O)c5ccccc5Br)c[nH]4)cc3)o2)CC1 [Compound 80] | 0.344
8 | CS(=O)(=O)c1ccccc1-c1nccc2[nH]c(C(=O)Nc3ccc(-c4cnco4)cc3)cc12 [Compound 62] | 0.28
9 | O=C(Nc1ccc(-c2cnco2)cc1)c1cc(C(=O)c2ccccc2C2=COCC2)c[nH]1 [Compound 145] | 0.039
10 | CN(C)c1cc(NC(=O)c2cc(C(=O)c3ccccc3C(F)(F)F)c[nH]2)ccc1-c1cnco1 [Compound 97] | 0.0509
11 | O=C(Nc1ccc(-c2cnco2)cc1)c1cc(C(=O)c2ccccc2N2CC(F)C2)c[nH]1 [Compound 153] | 0.014
12 | CCN1CCN(c2ccccc2C(=O)c2c[nH]c(C(=O)Nc3ccc(-c4cnco4)cc3)c2)CC1 [Compound 135] | 2.82
13 | COC1CN(c2ccccc2C(=O)c2c[nH]c(C(=O)Nc3ccc(-c4cnco4)cc3)c2)C1 [Compound 131] | 0.035
14 | O=C(Nc1ccc(-c2cncs2)cc1)c1cc2c(-c3ccccc3-c3ccccc3)nccc2[nH]1 [Compound 64] | 1.13
15 | CS(=O)(=O)c1ccccc1-c1ccnc2[nH]c(C(=O)Nc3ccc(-c4cncs4)cc3)cc12 [Compound 70] | 2.28
16 | CS(=O)(=O)c1ccccc1-c1nccc2cc(C(=O)Nc3ccc(-c4cncs4)cc3)[nH]c12 [Compound 50] | 0.067

Further lines, results first:

Row | IC50 [µM] | SMILES
17 | 0.007 | O=C(Nc1ccc(-c2cncs2)cc1)c1cc(C(=O)c2ccccc2C(F)(F)F)c[nH]1 [Compound 29]
18 | 0.012 | Cc1ncsc1-c1ccc(NC(=O)c2cc(C(=O)c3ccccc3C(F)(F)F)c[nH]2)cc1 [Compound 33]
19 | 0.044 | CN1CCN(c2ccc(-c3ccc(NC(=O)c4cc(C(=O)c5ccccc5C(F)(F)F)c[nH]4)cc3)cc2)CC1 [Compound 109]
20 | > 50 | O=C(c1ccc(C(F)(F)F)cc1)c1c[nH]c(C(=O)Nc2ccc(-c3cncs3)cc2)c1 [Compound 39]
21 | 0.015 | N#Cc1ccc(-c2ccc(NC(=O)c3cc(C(=O)c4ccccc4C(F)(F)F)c[nH]3)cc2)s1 [Compound 31]
22 | 0.031 | CC(=O)c1ccc(NC(=O)c2cc(C(=O)c3ccccc3C(F)(F)F)c[nH]2)cc1 [Compound 19]
23 | 0.041 | O=C(Nc1ccc(Br)cc1)c1cc(C(=O)c2ccccc2C(F)(F)F)c[nH]1 [Compound 16]
24 | 0.067 | O=C(Nc1ccc(-c2cnc(N3CCOCC3)o2)cc1)c1cc(C(=O)c2ccccc2C(F)(F)F)c[nH]1 [Compound 77]

Same assay, conditions: read-out: IC50 (Inhibitory Activity against YTHDC1)

Row | SMILES | IC50 [µM]
25 | C[Si]1(C)CCN(c2ccccc2C(=O)c2c[nH]c(C(=O)Nc3ccc(-c4cnco4)cc3)c2)CC1 [Compound 122] | 0.083

System: AML cells (MV4-11, HL-60, MOLM-13, THP-1, KG-1, U937, OCI-AML3)
Test: Detection of cell proliferation by MTT assay
Assay type: cell-based
Conditions: 72 h, range over the cell lines (FIG. 1a), read-out: IC50 values, inhibition of proliferation of AML cells
Procedure: AML cells (MV4-11, HL-60, MOLM-13, THP-1, KG-1, U937, and OCI-AML3) were seeded in 96-well plates at 10,000-15,000 cells per well, and then a series of concentration gradients of YL-5092 (i.e., Compound 29) were added for culture for 72 h. 20 μL of MTT solution ([…]) was added to each well and incubated for 2-4 hours, followed by the addition of 50 μL of 20% SDS solution and incubation overnight to dissolve the formazan. The absorbance value was then read at 570 nm on a microplate reader, and the IC50 value of YL-5092 was calculated using GraphPad Prism 8.0.

Row | IC50 [µM] | SMILES
26 | 0.28 to 2.87 | O=C(Nc1ccc(-c2cncs2)cc1)c1cc(C(=O)c2ccccc2C(F)(F)F)c[nH]1 [Compound 29]

System: leukaemia cells MOLM-13, MV4-11, THP-1, and U937
Test: Apoptosis detection by flow cytometry (APC-Annexin V, 7-AAD)
Assay type: cell-based
Conditions: MOLM-13, MV4-11, THP-1, U937; 0.5-2 μM, 5 days (FIG. 1d)
Procedure: To detect the effect of the small molecule YL-5092 on the apoptosis of leukaemia cells MOLM-13, MV4-11, THP-1, and U937, MOLM-13, MV4-11, THP-1, and U937 cells were evenly seeded in 12-well plates and treated them with different concentration gradients of YL-5092 (0.5-2 μM) for 5 days. After collection, the cells were washed twice with ice-cold PBS, and 5 μL of APC-Annexin V antibody and 5 μL of 7-AAD were added for incubation for 15-30 min, protected from light, and finally analyzed on the flow cytometer.

Row | SMILES | AML cell apoptosis
27 | O=C(Nc1ccc(-c2cncs2)cc1)c1cc(C(=O)c2ccccc2C(F)(F)F)c[nH]1 [Compound 29] | apoptosis

System: leukaemia cell MOLM-13
Test: Differentiation detection by flow cytometry (PE-CD11b, APC-CD14)
Assay type: cell-based
Conditions: MOLM-13, 0.5-2 μM, 5 days (FIG. 1c)
Procedure: To detect the effect of the small molecule YL-5092 on the differentiation of leukaemia cell MOLM-13, MOLM-13 cells were evenly seeded in 12-well plates and treated them with different concentration gradients of YL-5092 (0.5-2 μM) for 5 days. After collection, the cells were washed twice with ice-cold PBS, and 2 μL of PE-CD11b antibody and 2 μL of APC-CD14 antibody were added for incubation for 30 min, protected from light, then washed twice with ice-cold PBS, and finally analyzed on the flow cytometer.

Row | SMILES | AML cell differentiation
28 | O=C(Nc1ccc(-c2cncs2)cc1)c1cc(C(=O)c2ccccc2C(F)(F)F)c[nH]1 [Compound 29] | induce AML cell differentiation
